Measurements as given in US20160038565A1, “Methods of Mitigating Side Effects of Radiation Exposure and Chemotherapy” (Gencia Corporation, priority 2012, published 2016).

Legend:
[1] = Doxorubicin toxicity in naive mice (body weight, food intake, survival); assay type: in vivo, C57/BL6 mice; conditions: doxorubicin 25 mg/kg
Protocol: Two of four groups of five naive C57/BL6 mice were treated with doxorubicin (dox) at dose of 25 mg/kg, whereas the other two groups were left untreated. To assess PTD−TFAM's ability to ameliorate the toxic effects of Doxorubicin one group each of the dox-treated and untreated animals received PTD−TFAM at a dose of 0.3mg/kg on the same day as they were treated with Doxorubicin and every four days for two weeks thereafter (indicated with arrows in FIG. 1). Concurrently mice in the last two groups (one treated and one untreated with Doxorubicin) received vehicle alone (100 μl of 50% sorbitol, 2×PBS). To assess toxicity of the Doxorubicin treatment, mice were weighed once daily.
Each treatment group was housed together in cage separate from the other treatment group(s). The animals in each case share a food hopper. Food intake was evaluated on a group-by-group basis by weighing each group's food once daily. The difference in food weight between two days provides a rough estimate of the group's food intake during the period between two measurements (i.e, a day).

[2] = test system: orthotopic MiaPaca-2 xenografts; test: Gemcitabine toxicity in orthotopic model of pancreatic cancer; assay type: in vivo, BALB/c nude mouse; conditions: gemcitabine 40 mg/kg every 3 days
Protocol: MiaPaCa-2 tumor cells was maintained in vitro as monolayer culture in DMEM medium supplemented with 10% fetal bovine serum, 2.5% horse serum, 100 U/ml penicillin and 100 μg/m1 streptomycin, and 2 mM L-glutamine at 37° C. in an atmosphere of 5% CO2 in air. The tumor cells were routinely subcultured twice weekly by trypsin-EDTA treatment. Cells in an exponential growth phase will be harvested and counted for tumor inoculation. Before orthotopic implantation, 5×10^6 MiaPaca-2 cells in 50 μl PBS mixed with 50 μl Matrigel were inoculated subcutaneously at the right flank of each BALB/c nude mouse. Upon subcutaneous tumor size reaching about 500 mm^3, tumors were collected for orthotopic implantation.
For orthotopic MiaPaca-2 xenografts, mice were anesthetized by intraperitoneal injection of pentobarbital sodium (50 mg/kg) before tumor inoculation. The abdominal skin was sterilized and laparotomy was performed to expose the pancreas. Each mouse was inoculated with a subcutaneous MiaPaca-2 tumor fragment (2-3 mm in diameter) in the subcapsular region of the pancreas for tumor development. The abdominal wall was closed using No. 6 suture and then sterilized with povidone iodine solution. The day of surgery was denoted as Day 0 (DO). […] The body weight of each mouse was measured on treatment days 1, 5, 8, 12, 15, 19 and 22. […]

| SMILES | deaths / survival ([1]; PTD-TFAM 0.3 mg/kg every four days, five mice per group) | food consumed by the group combined during days 6-8 ([1]; per cage of five mice) | mice dead by day 22 [2] |
| --- | --- | --- | --- |
| COc1cccc2c1C(=O)c1c(O)c3c(c(O)c1C2=O)C[C@@](O)(C(=O)CO)C[C@@H]3O[C@H]1C[C@H](N)[C@H](O)[C@H](C)O1 [dox, doxorubicin] | One of the mice in dox only treatment group began to gain weight, but died on day 14 | less than two grams | – |
| Nc1ccn([C@@H]2O[C@H](CO)[C@@H](O)C2(F)F)c(=O)n1 [gemcitabine] | – | – | 50% |
